Data: paper PMC9838834, “Improvement of Antialveolar echinococcosis efficacy of novel Albendazole-Bile acids Derivatives with Enhanced Oral Bioavailability” (PLOS Neglected Tropical Diseases, 2023)
“Also recorded” adds a separate entry of the source. Like-named read-outs stand apart in the source and are kept apart here.

Tests used:
protoscolex (PSCs) [1] = assay: Detection of protoscolex mortality / survival rate in vitro (trypan blue); type: cell-based, E. multilocularis; settings: for inhibitory effect on PSC survival rate: 7 days, ABZ 10 μg/mL, ABZ-SO 10 μg/mL, ABZ-BA 13.45, 26.9, 53.8 μg/mL, liver homogenate + 0.2% DMSO, n = 3
Source text: (§1) Protoscoleces (PSCs) from E. multilocularis were collected aseptically from alveolar echinococcosis obtained from the abdominal cavity of gerbils in Qinghai Research Key Laboratory for Echinococcosis, China. The specific operation steps were as follows: (1) dissect the successfully preserved Echinococcus protoscoleces gerbil model, isolate cysts and wash the residual liver tissue and blood with sterile Penicillin-Streptomycin solution (penicillin (1500 U/ mL) + streptomycin (1000 U/ mL)). (2) Place the clean cysts in sterile glassware, cut them into a slurry, filter the original head section with sterile gauze, and rinse them with Penicillin-Streptomycin solution 3 times. (3) Slightly rotate and shake the filtrate, absorb the suspended connective tissue, impurities, inactivated PSCs, and excess Penicillin-Streptomycin solution in the upper layer, repeat several times and finally concentrate the pure PSCs into the test tube. Viability was assessed by muscular movement (evaluated under an optical microscope), the motility of flame cells, and the exclusion test with methylene blue. The PSCs were incubated in an RPMI 1640 medium containing 0.20 mg/mL liver homogenous serous, 100 U/mL penicillin, 100 μg/mL streptomycin and 10% calf serum at 37°C in a 5% CO2 atmosphere at a concentration of (1000–2000) PSCs/mL.
(§2) The PSCs were divided into blank control groups (Groups 1 and 2), positive control groups (Groups 3 and 4), and experimental groups (Groups 5 to 7). Group 1 was RPMI-1640 medium with 0.20 mg/mL liver homogenate; Group 2 was 0.2% DMSO medium with 0.2% DMSO; Group 3 was RPMI-1640 medium with 0.20 mg/mL liver homogenate and 0.2% DMSO, containing 10 μg/mL Albendazole; Group 4 was RPMI-1640 medium with 0.20 mg/mL liver homogenate and 0.2% DMSO, containing 10 μg/mL albendazole sulfoxide; Groups 5–7 were RPMI-1640 medium with 0.20 mg/mL liver homogenate and 0.2% DMSO, containing 13.45, 26.9 and 53.8 μg/mL ABZ-BA, with effective ABZ concentrations of 5, 10 and 20 μg/mL, respectively. The culture medium and drug were changed every 3 days for one week. PSCs samples (10 μL) were collected every day and stained with 0.4% trypan blue staining solution, observed under an inverted microscope, and photographed to record PSC mortality.

[2] = Wide-angle x-ray diffraction (WAXRD) of powders; type: physicochemical; settings: powder, 2θ 5 to 35°
Description: The ABZ and ABZ-BA powders were characterized by an X’Pert3 Powder X-ray diffractometer (PANalytical, Inc. U.K.), a voltage of 40 kV, and a current of 40 mA. The samples were scanned from 2θ = 5 to 35° at a scanning speed of 1°/min, and the step size was at 0.01° 2θ [10].

[3] = Water solubility, stated in response to reviewers; type: physicochemical
Source text: ABZ and ABZ-BA are both water-insoluble, so we suspended the drug in a 0.5% sodium carboxymethyl cellulose (CMC-Na) aqueous solution. This method of administration has been widely used for the oral administration of poorly soluble drugs. This method has been adopted by our research group in previous studies, and many studies have been published that use this method, including the following: […]

[4] = Systemic pharmacokinetics in SD rats (UHPLC-MS); type: in vivo, Sprague-Dawley (SD) rats; settings: for Cmax: po, 25 mg/kg
Description: A Dionex Ultimate 3000 RSLC system (Thermofisher) combined with an Accucore aQ C18 column (150 mm×2.1 mm, 2.6 μm, Thermo fisher) was used in the sample separation process. The separation speed was set at […] for all gradients. 1 μL of injection volume and a constant temperature of (25 ± 1°C were set for the column. The eluents were A, water with 0.1% formic acid (v/v) and B, methanol; the gradient program was as follows: 0–6 min, 8–40% B; 6–8 min, 40–100% B; 8–10 min, 100% B; 10–11 min, 100–8% B; 11–13 min, 8% B.
Heated electro-spray ionization (HE-SI) was paired with a Q-Orbitrap MS in the MS analysis. The flow rate of auxiliary, sheath and sweep gas was set at 35, 10, and 1 (arbitrary unit), respectively. A full MS-ddMS^2 mode was used to perform the analysis. The damping gas in the C-trap and nitrogen was used to stabilize the spraying. Temperatures of 350°C and 320°C were set and kept for the auxiliary gas heater and capillary. Under negative mode, 3.0 kV was adopted for the spray voltage, 60 V was used for the S-lens RF level, 50 ms was used for the maximum injection time, and 3.0 ^e6 was set as the automatic gain control target. Full MS-ddMS^2 scan ranged from 150.0000 to 800.0000 m/z. Precise molecular weight […] was used for qualitative analysis, the corresponding peak area was used for quantitative analysis, and MS^2 fragments were used for further qualitative analysis.
A cross-over design was employed with male SD rats (n = 7) to evaluate in vivo pharmacokinetics. The rats were subjected to fasting for one night before each administration and were fed 4 hours after administration. ABZ was administered by gavage (25 mg/kg). Blood was collected under isoflurane anesthesia at a flow rate of 2.0 mL/min. At 0.25, 0.5, 1, 2, 2.5, 3, 4, 6, 8, 12, and 24 hours after administration, 200–500 μL blood was collected from the orbital venous plexus and centrifuged at 13000 rpm for 5 min. The upper plasma was stored at—80°C for testing.
Plasma samples were thawed at room temperature, and 100 μL was added to an equal volume of mass spectrometry grade methanol, vortexed for 1 min, and centrifuged again at 13000 rpm for 5 min. 100 μL of the supernatant were added to 100 μL of 200 ng/mL mebendazole IS solution, vortexed for 1 min, and centrifuged again at 13000 rpm for 5 min. The resulting sample was injected by UHPLC-HR-ESI-MS with an injection volume of 1 μL. The pharmacokinetic study of SD rats was performed according to the standards recommended by the "Guidelines for the Care and Use of Laboratory Animals" (Animal Laboratory Resources Institute, 1995) and was approved by the Institutional Animal Care and Use Committee of Qinghai University.

protoscolex (PSCs) [5] = assay: Protoscolex microstructure by optical microscope and SEM; type: cell-based, E. multilocularis; settings: 5 days after treatment
Source text: as §1, §2
For ultrastructural studies, 200 μL PSCs were taken from each group 5 days after treatment and fixed with 4% glutaraldehyde in sodium cacodylate buffer at 4°C for 72 hours. Samples were dehydrated by continuous incubation in increasing concentrations of ethanol (50–100%), and ethanol was removed by supercritical extraction. They were then sputter-coated with gold (100 Å thick) and examined on an FEI Quanta 200 scanning electron microscope operating at 20 kV.

protoscolex (PSCs) [6] = assay: Alkaline phosphatase in supernatant of PSC culture medium; type: cell-based, E. multilocularis; settings: 5 days after treatment, same concentration as ABZ / ABZ-SO

For `CCCSc1ccc2nc(NC(=O)OC)[nH]c2c1` [ABZ, Albendazole], the “inhibitory effect on PSC survival rate” value (protoscolex (PSCs) [1]) was “time and concentration-dependent inhibitory effects”, the “physical state (WAXRD)” value [2] was “crystalline” and the water solubility ([3]; reason for dosing as suspension in 0.5% CMC-Na) was “water-insoluble”. The Cmax ([4]; male, Sprague-Dawley, rat, in vivo, SD rats, oral 25mg/kg of API) was 76.4 ± 7.62 ng/mL, the Cmax ([4]; male, Sprague-Dawley, rat, in vivo, SD rats, oral 25 mg/kg, n = 7, Table 2) was 8.44 ± 3.6 ng/mL and the Tmax ([4]; male, Sprague-Dawley, rat, in vivo, SD rats, oral 25 mg/kg, n = 7) was 10.9 ± 1.95 h. It also gave an AUC(0-inf) ([4]; male, Sprague-Dawley, rat, in vivo, SD rats, oral 25 mg/kg, n = 7, Abz = ABZ content of ABZ-BA) of 101 ± 45.9 ng·h/mL, an AUC(0-t) ([4]; male, Sprague-Dawley, rat, in vivo, SD rats, oral 25 mg/kg, n = 7, Abz = ABZ content of ABZ-BA, read-out: AUC(0–24)) of 91.5 ± 42.7 ng·h/mL and an MRT inf ([4]; male, Sprague-Dawley, rat, in vivo, SD rats, oral 25 mg/kg, n = 7, read-out: MRT(0-∞)) of 13.9 ± 3.98 h. The MRT last ([4]; male, Sprague-Dawley, rat, in vivo, SD rats, oral 25 mg/kg, n = 7, read-out: MRT(0–24)) was 11.6 ± 0.91 h, the Vd/F ([4]; male, Sprague-Dawley, rat, in vivo, SD rats, oral 25 mg/kg, n = 7, read-out: Vz/F) was 1990 ± 1620 L/kg and the half-life ([4]; male, Sprague-Dawley, rat, in vivo, SD rats, oral 25 mg/kg, n = 7, read-out: t1/2z (converted)) was 5.51 ± 4.27 h. For the same compound, the concentration at 8 h ([4]; male, Sprague-Dawley, rat, in vivo, SD rats, oral 25mg/kg, lower limit of detection, read-out: blood concentration after oral administration for 8 hours) was under 1 ng/mL, the “PSC morphology under the SEM” value (protoscolex (PSCs) [5]; 10 μg/mL) was “elongated and curled up” and the “PSC morphology under the optical microscope (OM)” value (protoscolex (PSCs) [5]; 10 μg/mL) was “became vacuolar and transparent”. The “mortality of PSCs” value (protoscolex (PSCs) [5]; 10 μg/mL, vs blank groups) was “significantly higher than in the blank groups”.

For `CCCSc1ccc2[nH]c(NC(=O)NCCCCOC(=O)CCC(C)C3CCC4C5C(O)CC6CC(O)CCC6(C)C5CC(O)C34C)nc2c1` (stereo not shown) [ABZ-BA], the “inhibitory effect on PSC survival rate” value (protoscolex (PSCs) [1]) was “time and concentration-dependent inhibitory effects”, the “inhibitory effect / killing ability on PSCs compared with ABZ” value (protoscolex (PSCs) [1]; in vitro) was “identical to that of ABZ; also recorded: the same as that of ABZ” and the “physical state (WAXRD)” value [2] was “amorphous”. The “ALP in supernatant of PSC culture medium vs positive control group” value (protoscolex (PSCs) [6]) was “no significant difference”, the water solubility [3] was “water-insoluble” and the “detectability in blood after oral administration for 8 hours” value ([4]; SD rats, oral 25 mg/kg) was “easily detected”. For the same compound, the “pharmacokinetic behavior compared with Albenda” value ([4]; rat, in vivo) was “superior to that of Albenda”, the “PSC morphology, lowest concentration” value (protoscolex (PSCs) [5]; ABZ-BA 13.45 μg/mL) was “obvious shrinkage at the lowest concentration, but the suckers were still clearly visible” and the “PSC morphology, intermediate and high concentration” value (protoscolex (PSCs) [5]; ABZ-BA 26.9 and 53.8 μg/mL) was “strikingly distinct from their original form, appearing in a disc state after death”.
